Data published in ChEMBL document CHEMBL4359906, “Design and synthesis of new N-terminal fatty acid modified-antimicrobial peptide analogues with potent in vitro biological activity” (Eur J Med Chem, 2019).
The source made the active and inactive calls. The calls are words filed in the database; no cut-off is given here.

How the values were obtained:
Staphylococcus aureus [1] = test: Antibacterial activity against Staphylococcus aureus ATCC 25923 after 18 hrs in presence of MgCl2 by CLSI based broth microdilution method (reference value: 8 microM); type: functional; details: ATCC 25923, 18 h
Staphylococcus aureus [2] = test: Antibacterial activity against Staphylococcus aureus ATCC 25923 after 18 hrs in presence of KCl by CLSI based broth microdilution method (reference value: 8 microM); type: functional; details: ATCC 25923, 18 h
Staphylococcus aureus [3] = test: Ratio of antibacterial activity against Staphylococcus aureus ATCC 25923 in presence of FeCl3 to antibacterial activity against Staphylococcus aureus ATCC 25923; type: functional
Escherichia coli [4] = test: Antibacterial activity against Escherichia coli ATCC 25922 after 18 hrs in presence of MgCl2 by CLSI based broth microdilution method (reference value: 8 microM); type: functional; details: ATCC 25922, 18 h
[5] = Selectivity index, ratio of MHC10 for human RBC to geometric mean of peptide MIC for gram positive bacteria; type: toxicity; details: human red blood cells, read-out: Selectivity Index
Escherichia coli [6] = test: Antibiofilm activity against Escherichia coli ATCC 25922 assessed as reduction in biofilm inhibition at MIC after 24 hrs by crystal violet staining based assay relative to control; type: functional
[7] = Selectivity index, ratio of MHC10 for human RBC to geometric mean of peptide MIC for gram negative bacteria; type: toxicity; details: human red blood cells, read-out: Selectivity Index
Staphylococcus aureus [8] = test: Antibiofilm activity against Staphylococcus aureus ATCC 25923 at 1 to 2 times of MIC after 24 hrs by crystal violet staining based assay; type: functional, organism-based
Escherichia coli [9] = test: Antibacterial activity against Escherichia coli ATCC 25922 after 18 hrs in presence of FeCl3 by CLSI based broth microdilution method (reference value: 8 microM); type: functional; details: ATCC 25922, 18 h
Escherichia coli [10] = test: Antimicrobial activity against Escherichia coli ATCC 25922 preincubated for 6 hrs in presence of 10% mouse serum and measured after 18 hrs by CLSI-based broth microdilution assay (reference value: 8 microM); type: functional
Escherichia coli [11] = test: Antibacterial activity against Escherichia coli ATCC 25922 after 18 hrs in presence of NaCl by CLSI based broth microdilution method (reference value: 8 microM); type: functional; details: ATCC 25922, 18 h
Escherichia coli [12] = test: Antibacterial activity against Escherichia coli ATCC 25922 after 18 hrs in presence of KCl by CLSI based broth microdilution method (reference value: 8 microM); type: functional; details: ATCC 25922, 18 h
Erythrocyte = test: Hemolytic activity in human RBC measured after 1 hr by microplate reader analysis; type: ADME, cell-based
Staphylococcus aureus [13] = test: Antibacterial activity against Staphylococcus aureus ATCC 25923 after 18 hrs in presence of NaCl by CLSI based broth microdilution method (reference value: 8 microM); type: functional; details: ATCC 25923, 18 h
Staphylococcus aureus [14] = test: Antibacterial activity against Staphylococcus aureus ATCC 25923 after 18 hrs in presence of FeCl3 by CLSI based broth microdilution method (reference value: 8 microM); type: functional; details: ATCC 25923, 18 h
DNA = test: Binding affinity to Escherichia coli ATCC 25922 genomic DNA after 30 mins by agarose gel electrophoresis; type: nucleic-acid assay
[15] = Cytotoxicity against mouse RAW264.7 cells assessed as cell proliferation at 4 uM after 1 hr by MTT assay relative to control; type: cell-based; details: read-out: Activity
Escherichia coli [16] = test: Antimicrobial activity against Escherichia coli ATCC 25922 preincubated for 1 hr in presence of 10% mouse serum and measured after 18 hrs by CLSI-based broth microdilution assay (reference value: 8 microM); type: functional
Escherichia coli [17] = test: Induction of membrane disruption in Escherichia coli ATCC 25922 assessed as corrugated membrane surface at 4 times of MIC after 2 hrs by SEM analysis; type: functional, organism-based
Escherichia coli [18] = test: Antibacterial activity against Escherichia coli ATCC 25922 after 18 hrs in presence of NaCl by CLSI based broth microdilution method (reference value: 16 microM); type: functional; details: ATCC 25922, 18 h
Escherichia coli [19] = test: Antibacterial activity against Escherichia coli ATCC 25922 after 18 hrs in presence of MgCl2 by CLSI based broth microdilution method (reference value: 16 microM); type: functional; details: ATCC 25922, 18 h
Escherichia coli [20] = test: Antibiofilm activity against Escherichia coli ATCC 25922 assessed as reduction in biofilm inhibition at 0.5 to 1 times of MIC after 24 hrs by crystal violet staining based assay; type: functional, organism-based
Escherichia coli [21] = test: Antibacterial activity against Escherichia coli ATCC 25922 after 18 hrs in presence of KCl by CLSI based broth microdilution method (reference value: 16 microM); type: functional; details: ATCC 25922, 18 h
Escherichia coli [22] = test: Antibacterial activity against Escherichia coli ATCC 25922 after 18 hrs in presence of FeCl3 by CLSI based broth microdilution method (reference value: 16 microM); type: functional; details: ATCC 25922, 18 h
Escherichia coli [23] = test: Antimicrobial activity against Escherichia coli ATCC 25922 preincubated for 6 hrs in presence of 10% mouse serum and measured after 18 hrs by CLSI-based broth microdilution assay (reference value: 16 microM); type: functional
Staphylococcus aureus [24] = test: Antibiofilm activity against Staphylococcus aureus ATCC 25923 at 2 times of MIC after 24 hrs by crystal violet staining based assay; type: functional, organism-based
Escherichia coli [25] = test: Antimicrobial activity against Escherichia coli ATCC 25922 preincubated for 1 hr in presence of 10% mouse serum and measured after 18 hrs by CLSI-based broth microdilution assay (reference value: 16 microM); type: functional
[26] = Hemolytic activity in human RBC at 256 uM measured after 1 hr by microplate reader analysis relative to control; type: ADME, cell-based, Erythrocyte; details: human red blood cells (erythrocytes), read-out: Activity
[27] = Cytotoxicity against mouse RAW264.7 cells assessed as cell proliferation at 32 uM after 1 hr by MTT assay relative to control; type: cell-based; details: read-out: Activity
[28] = Cytotoxicity against mouse RAW264.7 cells assessed as cell proliferation at 64 uM after 1 hr by MTT assay relative to control; type: cell-based; details: read-out: Activity
Staphylococcus aureus [29] = test: Antibacterial activity against Staphylococcus aureus ATCC 25923 after 18 hrs in presence of KCl by CLSI based broth microdilution method (reference value: 128 microM); type: functional; details: ATCC 25923, 18 h

Compound | MIC (Staphylococcus aureus [1]) [µM] | MIC (Staphylococcus aureus [2]) [µM] | Ratio (Staphylococcus aureus [3]) | MIC (Escherichia coli [4]) [µM] | selectivity ratio [5] | inhibition (INH) (Escherichia coli [6]) [%] | selectivity ratio [7] | inhibition (Staphylococcus aureus [8]) | MIC (Escherichia coli [9]) [µM] | MIC (Escherichia coli [10]) [µM] | MIC (Escherichia coli [11]) [µM] | MIC (Escherichia coli [12]) [µM] | MHC10 (Erythrocyte) [µM] | MIC (Staphylococcus aureus [13]) [µM] | MIC (Staphylococcus aureus [14]) [µM] | Activity (DNA) | viability at 1 h, 4 µM [15] [%] | MIC (Escherichia coli [16]) [µM] | Activity (Escherichia coli [17]) | MIC (Escherichia coli [18]) [µM] | also measured
CCCCCCCCCC(=O)NC(Cc1cn(CCCC[C@H](NC(C)=O)C(=O)NCC(=O)N[C@@H](CC(C)C)C(=O)N[C@@H](CC(C)C)C(=O)N[C@H](CCCCN)C(=O)N[C@@H](CCCNC(=N)N)C(=O)N[C@H](C(=O)N[C@H](CCCCN)C(=O)N[C@H](C(=O)N[C@@H](CC(C)C)C(=O)N[C@@H](CC(C)C)C(N)=O)[C@@H](C)O)[C@@H](C)CC)nn1)C(=O)NCC(=O)N[C@@H](CC(C)C)C(=O)N[C@@H](CC(C)C)C(=O)N[C@H](CCCCN)C(=O)N[C@@H](CCCNC(=N)N)C(=O)N[C@H](C(=O)N[C@H](CCCCN)C(=O)N[C@H](C(=O)N[C@@H](CC(C)C)C(=O)N[C@@H](CC(C)C)C(N)=O)[C@@H](C)O)[C@@H](C)CC (stereo partly drawn) | 4 | 16 | 2 - 4 | 16 | 3.69 | >50 | 3.2 | Active | 4 | 16 | 8 | 16 | 32 | 8 | 8 | Dose-dependent effect | < 80 | 8 | Active |  | 
CCCCCCCCCC(=O)NCC(=O)N[C@@H](CC(C)C)C(=O)N[C@@H](CC(C)C)C(=O)N[C@H](CCCCN)C(=O)N[C@@H](CCCNC(=N)N)C(=O)N[C@H](C(=O)N[C@H](CCCCN)C(=O)N[C@H](C(=O)N[C@@H](CC(C)C)C(=O)N[C@@H](CC(C)C)C(N)=O)[C@@H](C)O)[C@@H](C)CC | 8 | 8 | 2 - 4 |  | 8 |  | 5.33 |  |  |  |  |  | 64 | 8 | 8 | Dose-dependent effect |  |  | Active | 32 | MIC (Escherichia coli [19]): 16 µM; inhibition (Escherichia coli [20]): Active; MIC (Escherichia coli [21]): 16 µM; MIC (Escherichia coli [22]): 8 µM; MIC (Escherichia coli [23]): 16 µM; inhibition (Staphylococcus aureus [24]): Active; MIC (Escherichia coli [25]): 16 µM
CCCCCCCCCCCC(=O)NC(Cc1cn(CCCC[C@H](NC(C)=O)C(=O)NCC(=O)N[C@@H](CC(C)C)C(=O)N[C@@H](CC(C)C)C(=O)N[C@H](CCCCN)C(=O)N[C@@H](CCCNC(=N)N)C(=O)N[C@H](C(=O)N[C@H](CCCCN)C(=O)N[C@H](C(=O)N[C@@H](CC(C)C)C(=O)N[C@@H](CC(C)C)C(N)=O)[C@@H](C)O)[C@@H](C)CC)nn1)C(=O)NCC(=O)N[C@@H](CC(C)C)C(=O)N[C@@H](CC(C)C)C(=O)N[C@H](CCCCN)C(=O)N[C@@H](CCCNC(=N)N)C(=O)N[C@H](C(=O)N[C@H](CCCCN)C(=O)N[C@H](C(=O)N[C@@H](CC(C)C)C(=O)N[C@@H](CC(C)C)C(N)=O)[C@@H](C)O)[C@@H](C)CC (stereo partly drawn) | 8 | 16 | 2 - 4 | 32 | 1.85 | >50 | 2 | Active | 4 | 32 | 16 | 16 | 16 | 8 | 16 | Dose-dependent effect | < 80 | 16 | Active |  | 
CCCCCC(=O)NC(Cc1cn(CCCC[C@H](NC(C)=O)C(=O)NCC(=O)N[C@@H](CC(C)C)C(=O)N[C@@H](CC(C)C)C(=O)N[C@H](CCCCN)C(=O)N[C@@H](CCCNC(=N)N)C(=O)N[C@H](C(=O)N[C@H](CCCCN)C(=O)N[C@H](C(=O)N[C@@H](CC(C)C)C(=O)N[C@@H](CC(C)C)C(N)=O)[C@@H](C)O)[C@@H](C)CC)nn1)C(=O)NCC(=O)N[C@@H](CC(C)C)C(=O)N[C@@H](CC(C)C)C(=O)N[C@H](CCCCN)C(=O)N[C@@H](CCCNC(=N)N)C(=O)N[C@H](C(=O)N[C@H](CCCCN)C(=O)N[C@H](C(=O)N[C@@H](CC(C)C)C(=O)N[C@@H](CC(C)C)C(N)=O)[C@@H](C)O)[C@@H](C)CC (stereo partly drawn) |  |  | 2 - 4 | 16 | 11.6 | >50 | 51.2 | Active | 4 | 16 | 32 | 16 | > 256 |  |  | Dose-dependent effect |  | 8 | Active |  | hemolysis at 1 h, 256 µM [26]: < 5%; viability at 1 h, 32 µM [27]: > 80%
CCCC(=O)NC(Cc1cn(CCCC[C@H](NC(C)=O)C(=O)NCC(=O)N[C@@H](CC(C)C)C(=O)N[C@@H](CC(C)C)C(=O)N[C@H](CCCCN)C(=O)N[C@@H](CCCNC(=N)N)C(=O)N[C@H](C(=O)N[C@H](CCCCN)C(=O)N[C@H](C(=O)N[C@@H](CC(C)C)C(=O)N[C@@H](CC(C)C)C(N)=O)[C@@H](C)O)[C@@H](C)CC)nn1)C(=O)NCC(=O)N[C@@H](CC(C)C)C(=O)N[C@@H](CC(C)C)C(=O)N[C@H](CCCCN)C(=O)N[C@@H](CCCNC(=N)N)C(=O)N[C@H](C(=O)N[C@H](CCCCN)C(=O)N[C@H](C(=O)N[C@@H](CC(C)C)C(=O)N[C@@H](CC(C)C)C(N)=O)[C@@H](C)O)[C@@H](C)CC (stereo partly drawn) |  |  | 2 - 4 |  | 5.91 | >50 | 32 | Active |  |  |  |  | > 256 |  |  | Dose-dependent effect |  |  | Active | 128 | MIC (Escherichia coli [19]): 32 µM; viability at 1 h, 64 µM [28]: > 80%; MIC (Escherichia coli [21]): 16 µM; MIC (Escherichia coli [22]): 16 µM; MIC (Staphylococcus aureus [29]): 128 µM; MIC (Escherichia coli [23]): 16 µM; MIC (Escherichia coli [25]): 16 µM
